Source: paper PMC11952368 (bioRxiv, 2025)

How the values were obtained:
mammary tumor = details: ref [87]; cited from earlier work
[1] = body and spleen weight / systemic toxicity, combination with Dox; type: in vivo, BALB/c mice; details: Dox 5 mg/kg i.p. every 72 hr; n=4 mice per group

Structure (SMILES) | tumor ECM normalization and chemotherapy response (mammary tumor) | body and spleen weight [1]
Cc1ccc(=O)n(-c2ccccc2)c1 [Pirfenidone] | normalizes the tumor ECM for enhanced chemotherapy response | –
COc1cccc2c1C(=O)c1c(O)c3c(c(O)c1C2=O)C[C@@](O)(C(=O)CO)C[C@@H]3O[C@H]1C[C@H](N)[C@H](O)[C@H](C)O1 [Dox, doxorubicin] | – | loss of body and spleen weight
